Legend:
Test in all cases: normalised response (% of control), CellTiter-Glo; higher = more viable cells (100 = DMSO, 0 = benzethonium chloride kill control)
Details in all cases: incubation time: 72 h
BT-549 = system: BT-549
Method in brief: (§1)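 Every value is a normalised signal taken at one concentration of a dilution series. Compound was placed in 384-well plates at 5 concentrations in 10-fold steps over a compound-specific 10,000-fold range, and 20 µl of breast cancer cell suspension was seeded onto it. After 72 h, CellTox Green fluorescence (485/520 nm) was measured first and CellTiter-Glo luminescence second, following 10 min at room temperature. Each plate was scaled to 0.1 % DMSO (100) and a positive kill control (0).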

HCC1937 = system: HCC1937
Method in brief: as §1

HCC1599 = system: HCC1599
Method in brief: as §1

MDA-MB-453 = system: MDA-MB-453
Method in brief: as §1

Hs578T = system: Hs578T
Method in brief: as §1

DU-4475 = system: DU-4475
Method in brief: as §1

CAL-51 = system: CAL-51
Method in brief: as §1

CAL-85-1 = system: CAL-85-1
Method in brief: as §1

CAL-148 = system: CAL-148
Method in brief: as §1

HCC1143 = system: HCC1143
Method in brief: as §1

MDA-MB-468 = system: MDA-MB-468
Method in brief: as §1

MDA-MB-436 = system: MDA-MB-436
Method in brief: as §1

MFM-223 = system: MFM-223
Method in brief: as §1

CAL-120 = system: CAL-120
Method in brief: as §1

HDQ-P1 = system: HDQ-P1
Method in brief: as §1

MDA-MB-231 = system: MDA-MB-231
Method in brief: as §1

BT-474 = system: BT-474
Method in brief: as §1

MCF-10A = system: MCF-10A
Method in brief: as §1

SK-BR-3 = system: SK-BR-3
Method in brief: as §1

Compound	normalised response (BT-549) [%]	normalised response (HCC1937) [%]	normalised response (HCC1599) [%]	normalised response (MDA-MB-453) [%]	normalised response (Hs578T) [%]	normalised response (DU-4475) [%]	normalised response (CAL-51) [%]	normalised response (CAL-85-1) [%]	normalised response (CAL-148) [%]	normalised response (HCC1143) [%]	normalised response (MDA-MB-468) [%]	normalised response (MDA-MB-436) [%]	normalised response (MFM-223) [%]	normalised response (CAL-120) [%]	normalised response (HDQ-P1) [%]	normalised response (MDA-MB-231) [%]	normalised response (BT-474) [%]	normalised response (MCF-10A) [%]	normalised response (SK-BR-3) [%]
C[C@]12O[C@H](C[C@]1(O)CO)n1c3ccccc3c3c4c(c5c6ccccc6n2c5c31)CNC4=O [Lestaurtinib] (1 nM)	97.3	98.9	90.8	94.3	101	97.7	133	104	100	102	102	100	101	93.9	95.4	99.8	104	96.6	–
CC[C@@]1(O)C(=O)OCc2c1cc1n(c2=O)Cc2cc3c(CN(C)C)c(O)ccc3nc2-1 [Topotecan] (10 nM)	90.3	95.8	93.2	104	100	95.4	91.9	95.8	103	93.9	97.6	94.4	99.9	96.1	98.4	94.1	98.2	92.7	–
O=C(NC[C@H](O)CO)c1ccncc1Nc1ccc(I)cc1F [Pimasertib] (10 nM)	91.4	102	105	99.7	92.2	83.9	124	87.8	90.8	94.2	91.9	107	99.2	103	81.1	97.6	102	66.6	–
Nc1cccc2c1CN(C1CCC(=O)NC1=O)C2=O (centres undefined) [Lenalidomide] (10 nM)	101	91.2	111	104	97.1	102	73.6	106	99.7	105	105	91.9	95.8	92.6	99.9	97.8	97.8	104	107
c1cc(CN2CCCNCCNCCCNCC2)ccc1CN1CCCNCCNCCCNCC1 [Plerixafor] (10 nM)	99.6	102	95.2	81.9	97.7	91.1	82.7	93.1	91.1	105	94.1	97.3	88.6	96.2	103	99	97.2	81.5	–
CNC(=O)c1cc(Oc2ccc(NC(=O)Nc3ccc(Cl)c(C(F)(F)F)c3)cc2)ccn1 [Sorafenib] (1 nM)	94.7	101	109	93.8	102	103	119	104	114	100	106	96.4	107	98.2	102	102	104	105	–
CCC/C=C/C=C/C(=O)O[C@H]1/C(=C/C(=O)OC)C[C@H]2C[C@H]([C@@H](C)O)OC(=O)C[C@H](O)C[C@@H]3C[C@H](OC(C)=O)C(C)(C)[C@](O)(C[C@@H]4C/C(=C/C(=O)OC)C[C@H](/C=C/C(C)(C)[C@]1(O)O2)O4)O3 [Bryostatin 1] (0.1 nM)	95.8	99	116	97.7	95.5	97	119	98.2	115	101	94.3	107	105	91.1	91.5	103	103	109	–
Cc1ccc(Nc2nccc(N(C)c3ccc4c(C)n(C)nc4c3)n2)cc1S(N)(=O)=O [Pazopanib] (10 nM)	93.9	100	100	109	94.8	107	82.8	100	104	102	104	107	98	91.9	97.2	98.2	98.2	97.2	–
Cc1cccc(-c2nn3c(c2-c2ccnc4ccc(C(N)=O)cc24)CCC3)n1 [Galunisertib] (1 nM)	102	99	103	115	103	107	92.5	99.5	123	111	104	108	107	101	102	105	109	102	–
O=C(Nc1c[nH]nc1-c1nc2ccc(CN3CCOCC3)cc2[nH]1)NC1CC1 [AT9283] (1 nM)	97.3	102	101	98.6	98.7	102	103	98.7	94.5	102	97.5	103	103	93.4	103	102	95.7	101	–
O=S(=O)(c1cccc2cnccc12)N1CCCNCC1 [Fasudil] (50 nM)	101	99.4	98.5	104	94.9	104	117	97	102	102	101	106	99.3	94.3	96.6	99.9	97.8	104	–

— the supplement of paper PMC4862054
